# Measured values reported in the supplement of paper PMC11208160.
# Assay: recombinant UMI read abundance after kanamycin selection (control-corrected) (log10(CPM+1)); higher = more efficient recombination; extreme values may be limits of the assay; sequences stand for … in AGTGCAGAGAAAATCGGCCAGTTTTCTCTGCCTGCAGTCCGCATGCCGTGGGACCCCTTGGGTTCTAACCTGTTGCCTAGATTTATGCAGCGGACTGCCTTTCTCCCAAAGTGATAAACCGG…AGGTTGGTTTCACT; site = the 11-nt donor
# How it was run: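 Each donor and donor-binding-loop pair was tracked by a 12-nt UMI on a plasmid carrying a promoterless kanamycin gene. With a second plasmid supplying a fixed target and T7-inducible IS621 bridge recombinase, the pool was plated in Escherichia coli on IPTG (0.07 mM) plus kanamycin or unselected. Sequencing of recombinant UMIs across the donor–target junction gave counts expressed as log10(CPM+1) after replicate averaging and control-derived scaling.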
row,Sequence,recombinant UMI read abundance (log10)
1,AGGAAGACATGGACCGGTTTTCCCGGTAATCCGTATTTGCA (site AGGATAACTTG),0.855
2,GTGGAGCCATGGACCGGTTTTCCCGGTAATCCGTATTTGTG (site GTGGAGACTCA),0.00935
3,GCCACAGCATGGACCGGTTTTCCCGGTAATCCGTATTTGTT (site GCCACAGCTAA),1.48
4,GCTAGAACATGGACCGGTTTTCCCGGTAATCCGTATTTGGC (site GTTAGAACTGC),0
5,CGAGGACCATGGACCGGTTTTCCCGGTAATCCGTATTTGGG (site CGAGGACCTCT),0.0267
6,CGGGAAACATGGACCGGTTTTCCCGGTAATCCGTATTTGCA (site CGGGAAACTTG),0.914
7,ACAGTTTCATGGACCGGTTTTCCCGGTAATCCGTATTTGCA (site ACAGTGTCTTG),1.52
8,CGTTCATCATGGACCGGTTTTCCCGGTAATCCGTATTTGCT (site CGATCATCTAG),0
9,TGATCATCATGGACCGGTTTTCCCGGTAATCCGTATTTGCT (site AGATCATCTAG),1.56
10,CAAGTCTCATGGACCGGTTTTCCCGGTAATCCGTATTTGAC (site CTAGTATCTGT),0.00697
11,TACAATACATGGACCGGTTTTCCCGGTAATCCGTATTTGCA (site TACAATACTTG),1.18
12,CGGACATCATGGACCGGTTTTCCCGGTAATCCGTATTTGCC (site CGGACATCTAG),0.305
13,GTTCTATCATGGACCGGTTTTCCCGGTAATCCGTATTTGGT (site GTTCTATCTAC),0
14,ACATCTACATGGACCGGTTTTCCCGGTAATCCGTATTTGTA (site ACATCTACTCA),0.0123
15,TAATAGTCATGGACCGGTTTTCCCGGTAATCCGTATTTGCG (site TAATAGTCTCG),3.15
16,TTGAATCCATGGACCGGTTTTCCCGGTAATCCGTATTTGTT (site TTGAATCCTAA),0.901
17,CCTTTCTCATGGACCGGTTTTCCCGGTAATCCGTATTTGGG (site CCATTCTCTCC),0.00388
18,CTACTAACATGGACCGGTTTTCCCGGTAATCCGTATTTGGT (site CTACTAACTTC),0.0138
19,GAGCCTTCATGGACCGGTTTTCCCGGTAATCCGTATTTGGT (site CAGCCTTCTAC),0.79

row,Sequence,recombinant UMI read abundance (log10)
1,AGGAAGACATGGACCGGTTTTCCCGGTAATCCGTATTTGCA (site ATGAAGGCTTG),0
2,TTCGGGCCATGGACCGGTTTTCCCGGTAATCCGTATTTGCC (site TTCGGGCCTGG),0
3,CCGATATCATGGACCGGTTTTCCCGGTAATCCGTATTTGTC (site CCCATATCTGA),0
4,ACCGAGACATGGACCGGTTTTCCCGGTAATCCGTATTTGGG (site ACCGAGACTCC),0.621
5,ATGAGCACATGGACCGGTTTTCCCGGTAATCCGTATTTGGA (site ATGAGCACTTC),0.82
6,AACGCAACATGGACCGGTTTTCCCGGTAATCCGTATTTGTT (site AACGCAACTAA),0.495
7,TAAGGTACATGGACCGGTTTTCCCGGTAATCCGTATTTGTA (site TAAGGTACTTA),2.09
8,AGGAAGACATGGACCGGTTTTCCCGGTAATCCGTATTTGCA (site AGGAAGACTAC),0.00471
9,AGAAGGGCATGGACCGGTTTTCCCGGTAATCCGTATTTGCT (site AGAACGGCTAG),0.0144
10,CTAGTATCATGGACCGGTTTTCCCGGTAATCCGTATTTGGC (site CTAGTATCTGG),2.2
11,CCTAATACATGGACCGGTTTTCCCGGTAATCCGTATTTGGG (site CCTAATACTGC),0
12,CAGATGGCATGGACCGGTTTTCCCGGTAATCCGTATTTGTA (site CAGATGGCTTA),2.68
13,CCAGGTGCATGGACCGGTTTTCCCGGTAATCCGTATTTGAT (site CCGGGTGCTAT),1.47
14,CGATCGACATGGACCGGTTTTCCCGGTAATCCGTATTTGTT (site CGTTCGACTAA),0.0124
15,CCTAACCCATGGACCGGTTTTCCCGGTAATCCGTATTTGAG (site CCTAACCCTCT),0.00788
16,CATTAGGCATGGACCGGTTTTCCCGGTAATCCGTATTTGCT (site CATTAGGCTAG),1.54
17,ACCGAGACATGGACCGGTTTTCCCGGTAATCCGTATTTGGG (site ACCTAGACTCC),0
18,GGGTCACCATGGACCGGTTTTCCCGGTAATCCGTATTTGCA (site GGGACACCTTG),0
19,AGAAAGCCATGGACCGGTTTTCCCGGTAATCCGTATTTGCT (site AGAAAGTCTAG),2.3
